Tested on: inducible human Hsp70
Assay: Hsp70 RNA induction by quantitative PCR analysis in Ramos B cells
Format: cell-based
Settings: 500 nM compound, 6 hours, Hsp70 RNA relative to gapdh; for % induction relative to Compound X: Compound X set to 100%; for fold induction at 0.5 µM: Homo sapiens, read-out: fold induction over DMSO
Experimental: The ability of the compounds of the invention to induce Hsp70 RNA induction by quantitative PCR analysis was examined. Ramos B cells were treated with 500 nM each compound for 6 hours and the RNA was isolated from the cells. Quantitative PCR was performed as described below:
Details for Quantitative PCR are as follows:
500 ng of RNA from each sample was used for cDNA synthesis using iScript cDNA Synthesis Kit (Biorad, Cat#170-8891). 1 ul of cDNA mixture was used with the iQ SYBR Green Supermix (Biorad, Cat#170-8882) to perform quantitative PCR in an iCycler machine (Biorad) using standard protocols. QPCR for each sample/time point was performed in duplicate. The following primers for inducible human Hsp70 and gapdh were used: […]
Ct values were obtained from the iCycler program and used in an equation (2^−ΔΔCT) for determining the amount of target relative to gapdh expression. This compares the relative expression of Hsp70 to the corresponding levels of gapdh in each sample. Duplicate wells were averaged. The amount of N-Malonyl-bis(N′-methyl-N′ thiobenzoylhydrazide) (Compound X) induction of Hsp70 was set to 100% and the percent of induction of Hsp70 by the compounds of the invention was determined relative to 100%.

Structure (SMILES)	% induction relative to Compound X	fold induction at 0.5 µM
CN(NC(=O)CC(=O)NN(C)C(=S)Nc1ccccc1)C(=S)Nc1ccccc1 [Compound 67]	0.09%	0.22
CN(NC(=O)CC(=O)NN(C)C(=S)NC1CC1)C(=S)NC1CC1 [Compound 69]	0.12%	0.3
COC(=S)N(C)NC(=O)CC(=O)NN(C)C(=S)OC [Compound 70]	0.57%	1.41
CN(NC(=O)CC(=O)NN(C)c1nccs1)c1nccs1 [Compound 71]	0.33%	0.87
CN(NC(=O)c1cc(=O)cc(C(=O)NN(C)C(=S)c2ccccc2)o1)C(=S)c1ccccc1 [Compound 74, N′2,N′6-dimethyl-4-oxo-N′2,N′6-di(phenylcarbonothioyl)-4H-pyran-2,6-dicarbohydrazide]	0.22%	0.59
